Tests used:
Assay type in all cases: cell-based, human
[1] = tested on: pDCs cocultured with naïve CD4+ T cells; assay: Blocking experiments (IDO, PD-L1, IFN-α) on Treg cells generation by pDCs in coculture; conditions: added to the coculture; p=0.07
Source text: Additionally, it is claimed that IFN-α itself induces the generation of Treg cells.

pDCs [2] = assay: Cytokine signature of TLR9-L-activated pDCs under IgE-FcεR1-crosslinker (ELISA); conditions: omalizumab 10 mg/mL 24 hours prior to crosslinker and TLR9-L, ELISA 24 hours after activation, compared to crosslinker condition
Method: Then, the cytokine profile was analysed by ELISA 24 hours after activation.

[3] = tested on: IgE bound to FcεR1 on pDCs; assay: Removal of membrane-bound IgE from purified pDCs; conditions: pDCs from atopic donors, IL-3, 5, 10 and mg/mL of Oma, 24 hours
Sequence of IgE bound to FcεR1 on pDCs (P01854 1-428 isoform P01854-1): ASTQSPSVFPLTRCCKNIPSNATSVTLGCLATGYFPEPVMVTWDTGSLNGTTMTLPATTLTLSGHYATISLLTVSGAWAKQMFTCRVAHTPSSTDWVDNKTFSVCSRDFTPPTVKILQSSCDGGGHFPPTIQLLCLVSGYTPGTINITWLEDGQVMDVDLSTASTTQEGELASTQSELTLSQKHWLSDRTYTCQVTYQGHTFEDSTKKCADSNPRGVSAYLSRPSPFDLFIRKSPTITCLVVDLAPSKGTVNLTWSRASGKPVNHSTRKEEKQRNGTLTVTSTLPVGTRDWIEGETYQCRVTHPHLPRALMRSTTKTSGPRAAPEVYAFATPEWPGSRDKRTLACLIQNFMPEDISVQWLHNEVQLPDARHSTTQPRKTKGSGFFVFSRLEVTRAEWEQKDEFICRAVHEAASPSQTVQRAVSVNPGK
Method: (§1) A) Left: Frequency of FcεR1α-bound IgE+ cells gated in pDCs. Right: Frequency of cells with unoccupied FcεR1, gated in pDCs (n=4). B) Viability of pDCs after 24 hours incubation with Oma (n=2). Values are given as mean±SEM. **p<0.01, *p<0.05 in paired t-test comparing multiple conditions.

pDCs [4] = assay: Viability of pDCs after incubation with Oma; conditions: 24 hours incubation with Oma
Method: as §1

[5] = tested on: pDCs cocultured with naïve CD4+ T cells; assay: Generation of Treg cells by pDCs: omalizumab in comparison to corticosteroids; conditions: 5 or 10 mg/mL of omalizumab for 24 hours before crosslinker and TLR9-L; coculture 5 days
Method: After 24 hours, the pDCs were washed and cocultured with naïve CD4+ T cells for 5 days.

Molecule | pDCs capacity to induce Treg cells under IgE-FcεR1-crosslinker condition [1] | TNF-α levels (pDCs [2]; p=0.04) | pDCs capacity to produce IFN-α (pDCs [2]; p=0.05) | IgE bound to FcεR1 on pDCs (IgE mean fluorescence intensity, MFI) [3] | frequency of pDCs with FcεR1-bound IgE (FcεR1+IgE+pDCs) [3] | levels of pDCs with unoccupied FcεR1 (FcεR1+IgE-pDCs) [3] | pDCs viability (pDCs [4]) | crosslinker-induced decrease of the frequency of induced Treg cells [5]
Nc1ccccc1C(=O)CC(N)C(=O)O (centres unmarked) [kyn, kynurenine] | increased | – | – | – | – | – | – | –
Omalizumab: recombinant DNA-derived humanized monoclonal antibody that selectively binds to free, circulating human immunoglobulin E (IgE) | – | retained low TNF-α levels | restored pDCs capacity to produce IFN-α | decrease in IgE mean fluorescence intensity (MFI) in a dose-dependent manner | significant reduction | increased levels | did not affect pDCs viability | reverted by Omalizumab in a dose dependent manner
